Literature values as cited in US20110178470A1, “PHARMACEUTICAL COMPOSITIONS COMPRISING BORONIC ACID COMPOUNDS” (DR. REDDY'S LABORATORIES LTD., priority 2008, published 2011).

Conditions: as the monomeric boronic acid; pH range of 2 to 6.5

For `CC(C)C[C@H](NC(=O)[C@H](Cc1ccccc1)NC(=O)c1cnccn1)B(O)O` [bortezomib, [(1R)-3-methyl-1-[[(2S)-1-oxo-3-phenyl-2-[(pyrazinylcarbonyl)amino]propyl]amino]butyl]boronic acid], the solubility in water is listed as 3300 to 3800 µg/mL.
